From US12258327B2, “5-membered heteroaryl-containing aminopyridine compounds as EGFR inhibitors” (YUHAN CORPORATION, priority 2021, dated 2025)
Like-named read-outs stand apart in the source and are kept apart here.

Tests used:
EGFR del19/T790M/C797S = EGFR del19/T790M/C797S (Homo sapiens, UniProt P00533, C797S/DEL746-750/T790M); assay: Biochemical EGFR kinase assay (Lance Ultra TR-FRET), triple mutant del19/T790M/C797S
Procedure, shortened: (§1)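 Step 1: compound in kinase buffer, 0.003–10 μM. Step 2: kinase reaction 1 h at room temperature. Step 4: TR-FRET read at 615/665 nm; IC50 calculated.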

EGFR wildtype (WT) = EGFR wildtype (WT) (Homo sapiens, UniProt P00533); assay: Biochemical EGFR kinase assay (Lance Ultra TR-FRET), wildtype
EGFR wildtype (WT), sequence (P00533 25-1210): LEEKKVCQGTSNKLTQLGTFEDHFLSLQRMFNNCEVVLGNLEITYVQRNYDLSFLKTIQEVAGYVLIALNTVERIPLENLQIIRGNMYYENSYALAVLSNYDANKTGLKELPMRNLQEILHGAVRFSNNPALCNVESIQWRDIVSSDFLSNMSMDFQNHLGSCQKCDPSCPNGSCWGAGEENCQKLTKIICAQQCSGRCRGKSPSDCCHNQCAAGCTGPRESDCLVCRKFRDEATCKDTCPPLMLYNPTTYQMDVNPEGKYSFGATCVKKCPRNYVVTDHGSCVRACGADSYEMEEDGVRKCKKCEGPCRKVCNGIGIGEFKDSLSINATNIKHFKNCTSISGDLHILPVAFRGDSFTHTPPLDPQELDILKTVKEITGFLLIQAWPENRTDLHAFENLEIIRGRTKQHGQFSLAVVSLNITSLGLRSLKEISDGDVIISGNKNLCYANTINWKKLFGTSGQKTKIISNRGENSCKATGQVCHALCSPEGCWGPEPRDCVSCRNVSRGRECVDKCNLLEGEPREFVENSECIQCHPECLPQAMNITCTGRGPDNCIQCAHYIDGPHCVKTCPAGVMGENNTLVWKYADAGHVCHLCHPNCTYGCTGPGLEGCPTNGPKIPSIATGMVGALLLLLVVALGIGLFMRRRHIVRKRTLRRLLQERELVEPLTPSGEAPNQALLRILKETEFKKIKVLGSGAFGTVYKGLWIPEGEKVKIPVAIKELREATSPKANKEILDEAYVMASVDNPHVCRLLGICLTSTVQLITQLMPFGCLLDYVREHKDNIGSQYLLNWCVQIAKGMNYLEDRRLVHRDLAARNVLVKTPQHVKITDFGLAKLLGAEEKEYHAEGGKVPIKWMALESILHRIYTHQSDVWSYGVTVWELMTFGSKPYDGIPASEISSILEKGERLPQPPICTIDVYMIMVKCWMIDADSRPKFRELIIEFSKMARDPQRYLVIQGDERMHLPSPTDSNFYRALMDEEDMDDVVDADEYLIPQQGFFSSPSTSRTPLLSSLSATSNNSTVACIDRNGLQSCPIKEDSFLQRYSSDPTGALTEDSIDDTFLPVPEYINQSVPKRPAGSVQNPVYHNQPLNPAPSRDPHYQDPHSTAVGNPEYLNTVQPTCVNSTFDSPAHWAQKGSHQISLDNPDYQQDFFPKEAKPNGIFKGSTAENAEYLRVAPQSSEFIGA
Procedure, shortened: as §1

EGFR del19/C797S = EGFR del19/C797S (Homo sapiens, UniProt P00533, C797S/DEL746-750); assay: Biochemical EGFR kinase assay (Lance Ultra TR-FRET), double mutant del19/C797S
EGFR del19/C797S, sequence (P00533 with tags, fused parts or gaps DEL746-750/C797S): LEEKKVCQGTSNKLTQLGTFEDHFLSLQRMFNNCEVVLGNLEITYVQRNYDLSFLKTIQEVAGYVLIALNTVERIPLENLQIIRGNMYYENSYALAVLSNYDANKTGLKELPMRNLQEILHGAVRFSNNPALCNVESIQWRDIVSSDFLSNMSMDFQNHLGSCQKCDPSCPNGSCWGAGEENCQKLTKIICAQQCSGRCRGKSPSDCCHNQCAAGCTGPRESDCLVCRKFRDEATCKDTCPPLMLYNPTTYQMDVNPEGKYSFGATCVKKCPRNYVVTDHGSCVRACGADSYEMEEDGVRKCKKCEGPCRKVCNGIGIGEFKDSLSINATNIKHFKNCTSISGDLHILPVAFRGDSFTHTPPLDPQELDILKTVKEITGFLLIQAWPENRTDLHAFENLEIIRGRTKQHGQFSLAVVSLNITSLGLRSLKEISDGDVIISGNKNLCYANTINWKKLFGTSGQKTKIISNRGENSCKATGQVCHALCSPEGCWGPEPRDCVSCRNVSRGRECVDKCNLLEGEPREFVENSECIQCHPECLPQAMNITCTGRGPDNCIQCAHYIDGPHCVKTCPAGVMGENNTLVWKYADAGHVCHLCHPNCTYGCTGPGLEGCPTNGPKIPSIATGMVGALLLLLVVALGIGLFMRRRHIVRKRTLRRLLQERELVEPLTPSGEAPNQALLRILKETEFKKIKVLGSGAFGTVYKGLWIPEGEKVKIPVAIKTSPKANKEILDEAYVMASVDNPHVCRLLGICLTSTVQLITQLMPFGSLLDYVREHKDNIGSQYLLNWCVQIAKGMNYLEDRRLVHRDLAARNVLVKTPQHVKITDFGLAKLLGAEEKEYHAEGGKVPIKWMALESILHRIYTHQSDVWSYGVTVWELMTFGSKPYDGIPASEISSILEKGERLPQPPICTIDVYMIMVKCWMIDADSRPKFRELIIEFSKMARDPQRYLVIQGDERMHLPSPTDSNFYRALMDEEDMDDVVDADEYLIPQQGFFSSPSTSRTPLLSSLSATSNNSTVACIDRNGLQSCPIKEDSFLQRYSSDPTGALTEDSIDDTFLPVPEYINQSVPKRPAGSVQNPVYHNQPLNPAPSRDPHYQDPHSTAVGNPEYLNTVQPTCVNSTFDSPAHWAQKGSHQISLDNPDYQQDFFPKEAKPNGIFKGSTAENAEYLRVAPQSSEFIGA
Procedure, shortened: as §1

EGFR L858R/C797S = EGFR L858R/C797S (Homo sapiens, UniProt P00533, C797S/L858R); assay: Biochemical EGFR kinase assay (Lance Ultra TR-FRET), double mutant L858R/C797S
Procedure, shortened: as §1

EGFR L858R/T790M/C797S = EGFR L858R/T790M/C797S (Homo sapiens, UniProt P00533, C797S/L858R/T790M); assay: Biochemical EGFR kinase assay (Lance Ultra TR-FRET), triple mutant L858R/T790M/C797S
EGFR L858R/T790M/C797S, sequence (P00533 25-1210 T790M/C797S/L858R): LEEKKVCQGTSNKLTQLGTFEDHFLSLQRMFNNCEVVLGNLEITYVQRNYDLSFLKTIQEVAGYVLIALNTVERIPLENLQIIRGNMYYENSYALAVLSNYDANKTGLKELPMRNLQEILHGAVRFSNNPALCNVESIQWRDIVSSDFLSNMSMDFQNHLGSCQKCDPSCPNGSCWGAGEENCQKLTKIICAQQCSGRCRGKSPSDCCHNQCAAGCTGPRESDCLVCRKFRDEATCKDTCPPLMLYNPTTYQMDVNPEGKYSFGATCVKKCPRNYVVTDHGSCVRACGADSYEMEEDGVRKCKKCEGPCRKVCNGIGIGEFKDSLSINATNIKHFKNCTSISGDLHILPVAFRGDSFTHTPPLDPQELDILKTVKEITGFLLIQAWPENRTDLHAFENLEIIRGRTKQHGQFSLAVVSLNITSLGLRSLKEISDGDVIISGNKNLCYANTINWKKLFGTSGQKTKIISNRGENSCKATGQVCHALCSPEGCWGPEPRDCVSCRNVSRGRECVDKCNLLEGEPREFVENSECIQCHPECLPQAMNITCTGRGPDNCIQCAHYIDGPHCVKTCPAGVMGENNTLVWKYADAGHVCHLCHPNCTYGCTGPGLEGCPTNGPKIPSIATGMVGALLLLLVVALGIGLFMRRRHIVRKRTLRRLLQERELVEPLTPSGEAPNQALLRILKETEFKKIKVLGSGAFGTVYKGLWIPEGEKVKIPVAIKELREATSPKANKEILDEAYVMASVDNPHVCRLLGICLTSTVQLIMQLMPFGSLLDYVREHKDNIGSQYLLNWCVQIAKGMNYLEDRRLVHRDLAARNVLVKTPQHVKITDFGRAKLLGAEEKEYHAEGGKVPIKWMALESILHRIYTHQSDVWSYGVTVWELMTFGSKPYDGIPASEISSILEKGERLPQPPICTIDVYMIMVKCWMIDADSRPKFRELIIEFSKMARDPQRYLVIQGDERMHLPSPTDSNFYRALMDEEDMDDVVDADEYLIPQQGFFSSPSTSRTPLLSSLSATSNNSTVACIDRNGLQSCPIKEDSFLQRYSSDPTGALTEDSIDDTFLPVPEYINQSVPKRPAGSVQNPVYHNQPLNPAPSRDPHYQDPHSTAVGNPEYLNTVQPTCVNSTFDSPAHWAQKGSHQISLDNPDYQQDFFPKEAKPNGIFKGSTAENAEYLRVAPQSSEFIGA
Procedure, shortened: as §1

[1] = IC50 del19/T790M/C797S (nM) 100 μM ATP, 100 μM ATP
[2] = Km ATP, read-out: IC50 del19/T790M/C797S (nM) Km ATP
[3] = IC50 WT (nM) 100 μM ATP, 100 μM ATP
[4] = Km ATP, read-out: IC50 WT (nM) Km ATP
[5] = IC50 del19/C797S (nM) 100 μM ATP, 100 μM ATP
[6] = Km ATP, read-out: IC50 del19/C797S (nM) Km ATP
[7] = IC50 L858R/C797S (nM) 100 μM ATP, 100 μM ATP
[8] = Km ATP, read-out: IC50 L858R/C797S (nM) Km ATP
[9] = IC50 L858R/T790M/C797S (nM) 100 μM ATP, 100 μM ATP
[10] = Km ATP, read-out: IC50 L858R/T790M/C797S (nM) Km ATP

EGFR del19/T790M/C797S, sequence (P00533 with tags, fused parts or gaps DEL746-750/T790M/C797S): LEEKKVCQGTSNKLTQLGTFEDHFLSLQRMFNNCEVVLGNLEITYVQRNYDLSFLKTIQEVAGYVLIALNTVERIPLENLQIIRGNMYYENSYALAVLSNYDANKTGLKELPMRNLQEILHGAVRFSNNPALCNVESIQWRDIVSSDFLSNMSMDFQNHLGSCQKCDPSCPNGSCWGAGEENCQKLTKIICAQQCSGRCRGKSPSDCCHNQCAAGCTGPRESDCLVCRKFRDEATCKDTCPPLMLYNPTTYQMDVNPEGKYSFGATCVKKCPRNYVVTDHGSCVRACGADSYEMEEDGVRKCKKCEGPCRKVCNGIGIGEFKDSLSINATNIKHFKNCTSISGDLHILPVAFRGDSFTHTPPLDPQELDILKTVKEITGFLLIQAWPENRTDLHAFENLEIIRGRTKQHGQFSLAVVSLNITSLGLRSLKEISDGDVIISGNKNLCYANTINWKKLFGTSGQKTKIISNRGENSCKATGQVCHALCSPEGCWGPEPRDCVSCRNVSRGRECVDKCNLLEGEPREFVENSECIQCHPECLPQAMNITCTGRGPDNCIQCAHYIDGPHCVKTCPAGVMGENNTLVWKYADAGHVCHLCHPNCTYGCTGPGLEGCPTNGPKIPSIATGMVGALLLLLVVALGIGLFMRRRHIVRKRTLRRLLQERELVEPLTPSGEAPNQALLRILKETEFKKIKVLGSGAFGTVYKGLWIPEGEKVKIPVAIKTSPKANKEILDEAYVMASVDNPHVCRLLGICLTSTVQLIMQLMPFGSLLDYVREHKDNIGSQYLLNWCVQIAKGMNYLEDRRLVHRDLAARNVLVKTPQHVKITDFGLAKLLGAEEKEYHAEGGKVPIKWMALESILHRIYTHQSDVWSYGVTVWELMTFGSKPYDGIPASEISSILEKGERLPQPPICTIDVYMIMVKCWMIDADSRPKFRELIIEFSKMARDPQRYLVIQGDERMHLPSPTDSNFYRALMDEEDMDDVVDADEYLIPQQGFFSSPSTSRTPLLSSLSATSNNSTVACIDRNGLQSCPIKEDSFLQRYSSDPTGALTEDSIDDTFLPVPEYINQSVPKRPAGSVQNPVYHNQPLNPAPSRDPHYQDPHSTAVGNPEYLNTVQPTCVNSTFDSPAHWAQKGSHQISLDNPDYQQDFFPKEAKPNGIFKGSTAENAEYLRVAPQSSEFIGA

`O=S(=O)(C1CC1)n1cc(-c2nccc(Nc3cc(N[C@@H]4CCC[C@H](O)C4)c(-c4csc(C(F)(F)F)n4)cn3)n2)cn1` [Example 96, (1S,3R)-3-((2-((2-(1-(Cyclopropylsulfonyl)-1H-pyrazol-4-yl)pyrimidin-4-yl)amino)-5-(2-(trifluoromethyl)thiazol-4-yl)pyridin-4-yl)amino)cyclohexan-1-ol] gave an IC50 (EGFR del19/T790M/C797S; [1]) of 3.5 nM, an IC50 (EGFR del19/T790M/C797S; [2]) of 2.7 nM and an IC50 (EGFR wildtype (WT); [3]) of over 10000 nM. The IC50 (EGFR wildtype (WT); [4]) was 418 nM, the IC50 (EGFR del19/C797S; [5]) was 159 nM and the IC50 (EGFR del19/C797S; [6]) was 89.1 nM. The IC50 (EGFR L858R/C797S; [7]) was 690 nM, the IC50 (EGFR L858R/C797S; [8]) was 22.7 nM and the IC50 (EGFR L858R/T790M/C797S; [9]) was 6.2 nM. The IC50 (EGFR L858R/T790M/C797S; [10]) was 2 nM.

`O=S(=O)(C1CC1)n1cc(-c2nccc(Nc3cc(N[C@H]4CC[C@@H](CCO)CC4)c(-c4ccn(CC(F)(F)F)n4)cn3)n2)cn1` [Example 269, 2-((1s,4s)-4-((2-((2-(1-(Cyclopropylsulfonyl)-1H-pyrazol-4-yl)pyrimidin-4-yl)amino)-5-(1-(2,2,2-trifluoroethyl)-1H-pyrazol-3-yl)pyridin-4-yl)amino)cyclohexyl)ethan-1-ol] gave an IC50 (EGFR del19/T790M/C797S; [1]) of 1.3 nM, an IC50 (EGFR del19/T790M/C797S; [2]) of 2.8 nM and an IC50 (EGFR wildtype (WT); [3]) of 5750 nM. The IC50 (EGFR wildtype (WT); [4]) was 7.1 nM, the IC50 (EGFR del19/C797S; [5]) was 29.9 nM and the IC50 (EGFR del19/C797S; [6]) was 1.3 nM. It also gave an IC50 (EGFR L858R/C797S; [7]) of 4 nM, an IC50 (EGFR L858R/C797S; [8]) of 1.4 nM and an IC50 (EGFR L858R/T790M/C797S; [9]) of 1.4 nM. For the same compound, the IC50 (EGFR L858R/T790M/C797S; [10]) was 0.5 nM.

Work on `O=S(=O)(C1CC1)n1cc(-c2nccc(Nc3cc(N[C@H]4CC[C@@H](NCCF)CC4)c(-c4ccn(CC(F)F)n4)cn3)n2)cn1` [Example 242, N^2-(2-(1-(Cyclopropylsulfonyl)-1H-pyrazol-4-yl)pyrimidin-4-yl)-5-(1-(2,2-difluoroethyl)-1H-pyrazol-3-yl)-N^4-((1s,4s)-4-((2-fluoroethyl)amino)cyclohexyl)pyridine-2,4-diamine] yielded an IC50 (EGFR del19/T790M/C797S; [1]) of 0.2 nM, an IC50 (EGFR del19/T790M/C797S; [2]) of 0.1 nM and an IC50 (EGFR wildtype (WT); [3]) of 6320 nM. The IC50 (EGFR wildtype (WT); [4]) was 6 nM, the IC50 (EGFR del19/C797S; [5]) was 0.8 nM and the IC50 (EGFR del19/C797S; [6]) was 0.4 nM. It also gave an IC50 (EGFR L858R/C797S; [7]) of 20.9 nM, an IC50 (EGFR L858R/C797S; [8]) of 1.2 nM and an IC50 (EGFR L858R/T790M/C797S; [9]) of 0.2 nM. The IC50 (EGFR L858R/T790M/C797S; [10]) was 0.1 nM.

Compound `O=S(=O)(C1CC1)n1cc(-c2nccc(Nc3cc(OC4CCC(O)C4)c(-c4ccn(C(F)F)n4)cn3)n2)cn1` (stereo not drawn) [Example 67, 3-((2-((2-(1-(Cyclopropylsulfonyl)-1H-pyrazol-4-yl)pyrimidin-4-yl)amino)-5-(1-(difluoromethyl)-1H-pyrazol-3-yl)pyridin-4-yl)oxy)cyclopentan-1-ol] has an IC50 (EGFR del19/T790M/C797S; [1]) of 3.6 nM, an IC50 (EGFR del19/T790M/C797S; [2]) of 3.4 nM and an IC50 (EGFR wildtype (WT); [3]) of over 10000 nM. The IC50 (EGFR wildtype (WT); [4]) was 336 nM, the IC50 (EGFR del19/C797S; [5]) was 111 nM and the IC50 (EGFR del19/C797S; [6]) was 111 nM. For the same compound, the IC50 (EGFR L858R/C797S; [7]) was 596 nM, the IC50 (EGFR L858R/C797S; [8]) was 23.5 nM and the IC50 (EGFR L858R/T790M/C797S; [9]) was 15.7 nM. The IC50 (EGFR L858R/T790M/C797S; [10]) was 3.8 nM.

Work on `Cc1nn(CC(F)F)c(C)c1-c1nccc(Nc2cc(N[C@H]3CC[C@@](C)(O)CC3)c(-c3ccn(C(F)F)n3)cn2)n1` [Example 321, (1s,4s)-4-((2-((2-(1-(2,2-Difluoroethyl)-3,5-dimethyl-1H-pyrazol-4-yl)pyrimidin-4-yl)amino)-5-(1-(difluoromethyl)-1H-pyrazol-3-yl)pyridin-4-yl)amino)-1-methylcyclohexan-1-ol] yielded an IC50 (EGFR del19/T790M/C797S; [2]) of 2.8 nM, an IC50 (EGFR wildtype (WT); [4]) of 74.8 nM and an IC50 (EGFR del19/C797S; [6]) of 20.2 nM. The IC50 (EGFR L858R/C797S; [8]) was 10.4 nM and the IC50 (EGFR L858R/T790M/C797S; [10]) was 2.3 nM.

`OCC[C@H]1CC[C@@H](Nc2cc(Nc3ccnc(-c4cnn(CC(F)F)c4)n3)ncc2-c2ccn(C(F)F)n2)CC1` [Example 146, 2-((1s,4s)-4-((2-((2-(1-(2,2-Difluoroethyl)-1H-pyrazol-4-yl)pyrimidin-4-yl)amino)-5-(1-(difluoromethyl)-1H-pyrazol-3-yl)pyridin-4-yl)amino)cyclohexyl)ethan-1-ol] gave an IC50 (EGFR del19/T790M/C797S; [2]) of 1.1 nM, an IC50 (EGFR wildtype (WT); [4]) of 19.9 nM and an IC50 (EGFR del19/C797S; [6]) of 10.8 nM. For the same compound, the IC50 (EGFR L858R/C797S; [8]) was 4.7 nM and the IC50 (EGFR L858R/T790M/C797S; [10]) was 0.4 nM.

For `CN(C)CC1CCC(Nc2cc(Nc3ccnc(-c4cnn(S(=O)(=O)C5CC5)c4)n3)ncc2-c2ccn(C3COC3)n2)CC1` (stereo not drawn) [Example 284, N^2-(2-(1-(Cyclopropylsulfonyl)-1H-pyrazol-4-yl)pyrimidin-4-yl)-N^4-((1s,4s)-4-((dimethylamino)methyl)cyclohexyl)-5-(1-(oxetan-3-yl)-1H-pyrazol-3-yl)pyridine-2,4-diamine], the IC50 (EGFR del19/T790M/C797S; [1]) was 0.1 nM, the IC50 (EGFR del19/T790M/C797S; [2]) was 0.1 nM and the IC50 (EGFR wildtype (WT); [3]) was 387 nM. The IC50 (EGFR wildtype (WT); [4]) was 0.8 nM, the IC50 (EGFR del19/C797S; [5]) was 0.4 nM and the IC50 (EGFR del19/C797S; [6]) was 0.1 nM. For the same compound, the IC50 (EGFR L858R/C797S; [7]) was 0.9 nM, the IC50 (EGFR L858R/C797S; [8]) was 0.1 nM and the IC50 (EGFR L858R/T790M/C797S; [9]) was 0.1 nM. It also gave an IC50 (EGFR L858R/T790M/C797S; [10]) of 0.1 nM.
